Measurements taken from ChEMBL document CHEMBL1201862, “PubChem BioAssay data set” (2004).
The source made the active and inactive calls.

Experiments:
[1] = intracellular Trypanosoma cruzi inhibitors in host cells – cell-based, plate reader, cherry-pick samples, set 3, dose response (AID 651818); assay type: functional;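 further: compounds incubated with infected cells for about four days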
[2] = Luminescence Cell-Based Dose Confirmation HTS to Identify Activators of 5'UTR Stem-Loop Driven Alpha-Synuclein mRNA Translation in H4 Neuroglioblastoma Cells. [Related pubchem assays: 1829 (Project Summary), 1814 (Primary HTS)]; assay type: functional
[3] = Luminescence Cell-Based Dose Response HTS to Identify Activators of Luciferase Translation or Activity in H4 […] Cells. [Related pubchem assays: 1829 (Project Summary), 1814 (Primary HTS)]; assay type: functional
H4 = assay: Luminescence Cell-Based Dose Response HTS to Identify Activators of 5'UTR Stem-Loop Driven Prion Protein mRNA Translation in H4 Neuroglioblastoma Cells. [Related pubchem assays: 1829 (Project Summary), 1814 (Primary HTS)]; assay type: functional; conditions: Homo sapiens
Cytochrome P450 2C19 = Cytochrome P450 2C19 (Homo sapiens, UniProt P33261); assay: Cytochrome panel assay with activity outcomes. Panel member name: p450-cyp2c19 Compounds with AC50 equal or less than 10 uM are considered active; assay type: functional; conditions: read-out: AC50
Cytochrome P450 3A4 = Cytochrome P450 3A4 (Homo sapiens, UniProt P08684);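 further: CYP3A4 tested as one member of a cytochrome P450 panel screen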
Cytochrome P450 2C9 = Cytochrome P450 2C9 (Homo sapiens, UniProt P11712)
Caspase-6 = target: T1, Caspase-6 (Homo sapiens, UniProt P55212); assay: human caspase-6 inhibitors, dose response, biochemical, VEID-R110 fluorescence, cherry-pick (AID 720632)
T1 sequence (P55212 whole entry): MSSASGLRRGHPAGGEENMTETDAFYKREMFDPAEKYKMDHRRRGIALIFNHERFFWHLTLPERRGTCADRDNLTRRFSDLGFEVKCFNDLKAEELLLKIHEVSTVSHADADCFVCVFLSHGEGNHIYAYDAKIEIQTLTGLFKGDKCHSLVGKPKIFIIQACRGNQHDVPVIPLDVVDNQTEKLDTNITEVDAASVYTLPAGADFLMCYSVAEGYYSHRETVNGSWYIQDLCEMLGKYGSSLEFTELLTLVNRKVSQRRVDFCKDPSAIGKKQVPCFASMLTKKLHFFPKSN

[4] = A cytotoxicity screen of small molecule inhibitors of the PhoP region in Salmonella typhi identified in the primary screen. [Related pubchem assays: 1850, 1864, 1985 ]; assay type: functional
[5] = target: FAD-linked sulfhydryl oxidase ALR (Homo sapiens, UniProt P55789); assay: inhibitors of human ALR sulfhydryl oxidase, dose response, biochemical, H2O2 detection, luminescence, cherry-pick (AID 493248)
Large T antigen = Large T antigen (Simian virus 40, UniProt P03070); assay type: functional, Betapolyomavirus macacae;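 further: Confirmatory-stage PubChem screen for compounds that inhibit SV40 T antigen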
[6] = target: T2, Replicative DNA helicase DnaB (Mycobacterium tuberculosis, UniProt P9WMR3); assay: DnaB intein splicing inhibitors, dose response, biochemical, cell-free fluorescence (AID 449749); assay type: functional
T2 sequence (P9WMR3 whole entry): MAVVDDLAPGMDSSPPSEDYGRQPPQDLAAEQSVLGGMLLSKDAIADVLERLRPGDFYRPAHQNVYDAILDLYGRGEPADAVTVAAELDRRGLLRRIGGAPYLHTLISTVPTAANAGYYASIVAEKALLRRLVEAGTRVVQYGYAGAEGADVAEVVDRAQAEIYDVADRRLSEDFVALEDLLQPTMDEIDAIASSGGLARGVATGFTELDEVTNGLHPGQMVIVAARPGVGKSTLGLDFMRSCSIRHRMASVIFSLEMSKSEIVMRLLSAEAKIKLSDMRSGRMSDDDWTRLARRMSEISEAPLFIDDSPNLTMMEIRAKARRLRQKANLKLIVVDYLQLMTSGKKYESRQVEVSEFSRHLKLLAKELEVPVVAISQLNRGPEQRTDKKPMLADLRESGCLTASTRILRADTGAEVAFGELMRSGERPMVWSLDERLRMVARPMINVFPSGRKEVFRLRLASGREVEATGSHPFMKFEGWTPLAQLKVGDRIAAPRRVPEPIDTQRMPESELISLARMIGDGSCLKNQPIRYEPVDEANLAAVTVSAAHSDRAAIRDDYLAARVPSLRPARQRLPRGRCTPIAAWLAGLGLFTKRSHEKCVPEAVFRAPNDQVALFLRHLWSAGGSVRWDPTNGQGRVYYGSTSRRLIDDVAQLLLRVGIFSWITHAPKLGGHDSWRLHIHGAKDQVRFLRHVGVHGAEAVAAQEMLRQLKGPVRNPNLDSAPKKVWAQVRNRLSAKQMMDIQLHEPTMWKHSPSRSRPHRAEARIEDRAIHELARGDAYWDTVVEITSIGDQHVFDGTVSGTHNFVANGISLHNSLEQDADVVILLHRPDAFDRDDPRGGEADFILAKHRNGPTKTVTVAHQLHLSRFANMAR

Protein RecA = target: T3, Protein RecA (Mycobacterium tuberculosis, UniProt P9WHJ3); assay: Fluorescence Cell-Free Homogeneous Dose Retest to Identify Inhibitors of RecA-Intein Splicing Activity. [Related pubchem assays (depositor defined):AID2097, AID2223, AID489010, AID492950]; assay type: functional
T3 sequence (P9WHJ3 whole entry): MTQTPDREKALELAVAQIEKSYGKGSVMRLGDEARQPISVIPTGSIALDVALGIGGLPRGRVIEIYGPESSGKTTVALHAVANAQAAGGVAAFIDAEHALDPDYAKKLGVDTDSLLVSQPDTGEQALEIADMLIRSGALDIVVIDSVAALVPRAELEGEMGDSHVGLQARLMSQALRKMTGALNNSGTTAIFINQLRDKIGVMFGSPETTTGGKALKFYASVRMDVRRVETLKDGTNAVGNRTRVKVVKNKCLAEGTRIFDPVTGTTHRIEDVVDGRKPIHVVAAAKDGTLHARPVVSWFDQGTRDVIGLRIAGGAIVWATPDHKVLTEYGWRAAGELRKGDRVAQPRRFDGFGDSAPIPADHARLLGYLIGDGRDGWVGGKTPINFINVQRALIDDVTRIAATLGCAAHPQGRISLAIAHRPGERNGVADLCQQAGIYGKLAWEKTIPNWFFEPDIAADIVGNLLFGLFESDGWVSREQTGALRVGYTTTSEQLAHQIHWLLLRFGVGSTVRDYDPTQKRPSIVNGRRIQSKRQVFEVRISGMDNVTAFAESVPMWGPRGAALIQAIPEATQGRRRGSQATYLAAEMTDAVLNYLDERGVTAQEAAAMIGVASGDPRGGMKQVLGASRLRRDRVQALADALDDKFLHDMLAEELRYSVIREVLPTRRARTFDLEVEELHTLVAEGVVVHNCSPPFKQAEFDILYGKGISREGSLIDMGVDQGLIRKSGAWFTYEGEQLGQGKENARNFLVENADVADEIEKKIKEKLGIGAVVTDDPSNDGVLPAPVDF

[7] = target: T4, Rac GTPase-activating protein 1 (Homo sapiens, UniProt Q9H0H5); assay: MgcRacGAP GTPase-activating activity inhibitors, confirmation, biochemical, ADP Hunter fluorescence, primary and confirmatory (AID 624330); assay type: functional
T4 sequence (Q9H0H5 whole entry): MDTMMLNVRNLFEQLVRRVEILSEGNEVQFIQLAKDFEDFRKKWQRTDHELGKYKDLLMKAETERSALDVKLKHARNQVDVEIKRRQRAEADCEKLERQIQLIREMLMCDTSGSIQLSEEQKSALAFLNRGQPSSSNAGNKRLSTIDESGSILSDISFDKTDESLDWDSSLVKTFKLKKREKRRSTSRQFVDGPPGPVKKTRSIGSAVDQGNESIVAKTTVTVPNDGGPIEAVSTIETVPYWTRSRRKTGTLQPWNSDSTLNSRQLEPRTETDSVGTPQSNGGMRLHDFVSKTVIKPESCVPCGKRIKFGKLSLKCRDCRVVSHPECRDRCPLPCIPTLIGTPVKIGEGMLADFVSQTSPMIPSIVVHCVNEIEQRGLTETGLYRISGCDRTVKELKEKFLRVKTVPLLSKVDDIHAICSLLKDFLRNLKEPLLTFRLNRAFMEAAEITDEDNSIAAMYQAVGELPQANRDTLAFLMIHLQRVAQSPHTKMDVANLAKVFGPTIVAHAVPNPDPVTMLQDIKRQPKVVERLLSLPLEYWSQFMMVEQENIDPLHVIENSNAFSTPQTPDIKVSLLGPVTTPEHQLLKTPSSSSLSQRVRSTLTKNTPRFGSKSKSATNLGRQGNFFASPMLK

H9c2 = assay: cells; assay type: functional, cell-based; conditions: Rattus norvegicus, H9c2, Myocardium;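 further: confirmatory concentration-response retest of ultra-high-throughput screening hits for modulation of myocardial damage; cell death induced by hydrogen peroxide oxidative stress; compound pretreatment for 60 min then peroxide exposure for 2 h; potency is for protecting the cells against peroxide damage rather than for killing them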

Sequence of Large T antigen (P03070 whole entry): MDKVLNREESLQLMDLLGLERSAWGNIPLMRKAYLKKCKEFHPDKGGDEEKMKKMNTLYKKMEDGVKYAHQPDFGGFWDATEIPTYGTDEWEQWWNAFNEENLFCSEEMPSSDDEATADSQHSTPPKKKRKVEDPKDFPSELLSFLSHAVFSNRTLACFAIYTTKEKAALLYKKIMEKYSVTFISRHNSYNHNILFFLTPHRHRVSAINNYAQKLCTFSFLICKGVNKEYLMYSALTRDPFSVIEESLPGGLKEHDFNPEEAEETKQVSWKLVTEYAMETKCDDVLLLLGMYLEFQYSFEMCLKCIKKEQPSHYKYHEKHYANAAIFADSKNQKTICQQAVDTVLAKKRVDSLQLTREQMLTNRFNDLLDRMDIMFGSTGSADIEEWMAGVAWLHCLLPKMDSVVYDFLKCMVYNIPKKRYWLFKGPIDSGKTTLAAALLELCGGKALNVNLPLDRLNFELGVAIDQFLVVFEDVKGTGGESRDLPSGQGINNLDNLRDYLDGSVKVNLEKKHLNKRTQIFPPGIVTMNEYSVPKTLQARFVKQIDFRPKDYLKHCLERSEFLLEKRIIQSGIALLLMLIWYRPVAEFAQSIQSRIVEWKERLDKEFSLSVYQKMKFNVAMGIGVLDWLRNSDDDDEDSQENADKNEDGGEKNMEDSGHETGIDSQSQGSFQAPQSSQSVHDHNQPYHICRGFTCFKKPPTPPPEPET
Sequence of Cytochrome P450 2C9 (P11712 whole entry): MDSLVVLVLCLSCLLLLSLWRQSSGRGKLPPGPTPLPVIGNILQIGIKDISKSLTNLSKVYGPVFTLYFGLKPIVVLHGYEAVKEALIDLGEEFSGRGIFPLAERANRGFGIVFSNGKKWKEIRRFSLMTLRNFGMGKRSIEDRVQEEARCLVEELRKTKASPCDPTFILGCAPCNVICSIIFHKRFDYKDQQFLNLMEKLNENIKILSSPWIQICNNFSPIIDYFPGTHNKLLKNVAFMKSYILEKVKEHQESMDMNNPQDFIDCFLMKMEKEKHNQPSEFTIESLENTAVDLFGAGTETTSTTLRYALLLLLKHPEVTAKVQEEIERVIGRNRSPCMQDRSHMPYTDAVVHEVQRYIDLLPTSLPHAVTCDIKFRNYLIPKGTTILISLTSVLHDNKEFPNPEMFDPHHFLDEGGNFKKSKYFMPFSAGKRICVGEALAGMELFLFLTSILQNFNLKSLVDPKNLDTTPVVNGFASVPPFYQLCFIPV
Sequence of Cytochrome P450 2C19 (P33261 whole entry): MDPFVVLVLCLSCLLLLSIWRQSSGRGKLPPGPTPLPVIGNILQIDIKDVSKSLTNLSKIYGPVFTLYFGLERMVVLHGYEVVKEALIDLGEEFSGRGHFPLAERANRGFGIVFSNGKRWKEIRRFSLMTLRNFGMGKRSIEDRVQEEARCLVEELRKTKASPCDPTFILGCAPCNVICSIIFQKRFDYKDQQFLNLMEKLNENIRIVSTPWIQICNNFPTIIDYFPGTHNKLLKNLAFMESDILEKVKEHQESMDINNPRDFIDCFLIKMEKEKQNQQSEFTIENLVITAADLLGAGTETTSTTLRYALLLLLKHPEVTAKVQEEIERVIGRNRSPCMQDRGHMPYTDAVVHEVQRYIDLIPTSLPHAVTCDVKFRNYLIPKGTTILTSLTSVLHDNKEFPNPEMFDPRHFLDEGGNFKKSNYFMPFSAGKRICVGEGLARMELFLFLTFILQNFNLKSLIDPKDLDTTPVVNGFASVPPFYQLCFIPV
Sequence of Cytochrome P450 3A4 (P08684 whole entry): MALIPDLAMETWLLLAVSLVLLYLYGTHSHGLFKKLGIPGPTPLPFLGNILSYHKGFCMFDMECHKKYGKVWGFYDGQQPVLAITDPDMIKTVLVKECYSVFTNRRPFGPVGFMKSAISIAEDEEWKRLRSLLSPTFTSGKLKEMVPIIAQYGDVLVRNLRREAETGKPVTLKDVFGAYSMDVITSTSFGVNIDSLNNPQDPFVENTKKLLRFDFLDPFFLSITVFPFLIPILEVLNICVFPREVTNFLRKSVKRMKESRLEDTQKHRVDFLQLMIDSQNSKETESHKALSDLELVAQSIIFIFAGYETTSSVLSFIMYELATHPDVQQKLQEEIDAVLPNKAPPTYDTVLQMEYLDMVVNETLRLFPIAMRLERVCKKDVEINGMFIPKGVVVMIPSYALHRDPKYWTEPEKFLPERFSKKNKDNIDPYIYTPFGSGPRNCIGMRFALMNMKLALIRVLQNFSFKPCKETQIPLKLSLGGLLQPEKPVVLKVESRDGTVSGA
Sequence of FAD-linked sulfhydryl oxidase ALR (P55789 whole entry): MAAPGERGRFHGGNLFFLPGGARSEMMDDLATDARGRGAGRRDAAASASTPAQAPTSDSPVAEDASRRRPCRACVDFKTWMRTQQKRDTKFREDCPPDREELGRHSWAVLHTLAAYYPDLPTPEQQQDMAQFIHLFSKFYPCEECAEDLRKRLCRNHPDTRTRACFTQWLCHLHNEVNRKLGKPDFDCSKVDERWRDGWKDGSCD

C[C@@H]1CN([C@H](C)CO)C(=O)Cc2cc(NC(=O)Nc3cccc4ccccc34)ccc2O[C@H]1CN(C)Cc1ccccc1
AC50 [1]: 6.25 µM (active)

Cn1c(-c2ccc(-c3ccccc3)cc2)cnc1S
EC50 [2]: 7.14 µM (active) | EC50 [3]: 7.75 µM (active) | EC50 (H4): 15.6 µM (active)

Cc1c(Cl)cccc1NC(=O)C[C@H]1Sc2ccccc2NC1=O
AC50 (Cytochrome P450 2C19): 3.16 µM (inconclusive) | AC50 (Cytochrome P450 3A4): 3.98 µM (inconclusive) | AC50 (Cytochrome P450 2C9): inconclusive

CC(Oc1ccc(F)cc1)C(=O)Nc1cccc(-c2nn[nH]n2)c1 (configuration not stated)
AC50 (Caspase-6): 32.6 µM (active)

O=C(/C=C\c1ccc(O)c(O)c1)O[C@@H]1C[C@](O)(C(=O)O)C[C@@H](O)[C@@H]1O
AC50 (Cytochrome P450 2C9): inconclusive

COc1ccc2c(C(=O)CN(C)C3CCCCC3)c[nH]c2c1
EC50 [4]: > 50 µM (active)

C/C(=N\NC(=O)c1cc(O)ccc1O)c1cccc(NC(=O)c2cccc(Cl)c2)c1
AC50 (Caspase-6): 1.18 µM (active)

C[C@@H]1CN([C@@H](C)CO)C(=O)c2cccc(NC(=O)CCCCCC(=O)Nc3ccccc3N)c2O[C@H]1CN(C)CC1CC1
AC50 [1]: 4.62 µM (active)

C[C@@H]1CN([C@H](C)CO)C(=O)Cc2cc(NS(=O)(=O)c3ccc(F)cc3)ccc2O[C@H]1CN(C)Cc1ccc(Cl)c(Cl)c1
AC50 [1]: 2.26 µM (active)

NC(=O)CN1N=C(c2cc(Cl)sc2Cl)CSC1=O
EC50 [4]: > 50 µM (active)

CN1C(=O)/C(=C(/C#N)c2nc3ccccc3[nH]2)c2ccccc21
AC50 (Cytochrome P450 2C19): 11.2 µM (inconclusive) | AC50 (Cytochrome P450 2C9): inconclusive

CCOC(=O)N1CCN(C(=O)CNCc2cccs2)CC1.O=C(O)C(=O)O
AC50 (Cytochrome P450 2C9): inconclusive

CCN1C(=O)C(O)(C2COC(C)(C)CC2=O)c2ccccc21 (configuration not stated)
AC50 (Cytochrome P450 2C19): 25.1 µM (inconclusive) | AC50 (Cytochrome P450 2C9): inconclusive

O=C(Nc1ccccc1)O[C@@H]1C[C@H]2CCC(=O)N3CC[C@@H](C1)[C@@H]23
EC50 [2]: 0.39 µM (active) | EC50 [3]: 40.9 µM (active) | EC50 (H4): 53.9 µM (active)

C[C@@H]1CCCCO[C@@H](CN(C)C(=O)Nc2ccc(C(F)(F)F)cc2)[C@@H](C)CN([C@H](C)CO)C(=O)c2cc(NC(=O)Nc3ccc4c(c3)OCO4)ccc2O1
AC50 [1]: 4.09 µM (active)

O=Cc1ccc(N2CCCCCC2)cc1
EC50 [4]: > 50 µM (active)

C[C@@H]1CN([C@H](C)CO)C(=O)Cc2cc(NC(=O)CCC(F)(F)F)ccc2O[C@@H]1CN(C)Cc1ccc(Oc2ccccc2)cc1
AC50 [1]: 2.81 µM (active)

CCOC(=O)c1nc2cc3n(c(CC(C)C)c-2c1C)CC(C)=C3C
EC50 [4]: > 50 µM (active)

COC(=O)c1c(C)[nH]c(C(=O)OCc2ccc(F)cc2)c1C
EC50 [2]: 0.115 µM (active) | EC50 [3]: 23.8 µM (active) | EC50 (H4): 9.55 µM (active)

CC1CC(C)CN(S(=O)(=O)c2cccc3cccnc23)C1 (configuration not stated)
EC50 [4]: > 50 µM (active) | AC50 [5]: 17.4 µM (active)

Nc1[nH]cnc2nc(SCC(=O)Nc3cccc(C(F)(F)F)c3)nc1-2
EC50 [4]: > 50 µM (active)

COc1cccc(C(=O)Nc2ccc(N3CCN(C(=O)c4ccco4)CC3)cc2)c1
EC50 [2]: > 120 µM (not active) | EC50 [3]: 8.46 µM (active) | EC50 (H4): > 120 µM (not active)

Cc1ccc(C(=O)c2cn(-c3ccc(F)c(Cl)c3)nn2)cc1
AC50 (Cytochrome P450 2C9): inconclusive

Oc1cc(-c2ccc(Br)cc2)[nH]n1
IC50 (Large T antigen): 53.9 µM (active) | AC50 [6]: 3.06 µM (active) | EC50 (Protein RecA): 0.718 µM (active)

C[C@@H]1CCCCO[C@@H](CN(C)Cc2ccc(C(F)(F)F)cc2)[C@@H](C)CN([C@H](C)CO)C(=O)c2cc(NC(=O)Nc3ccccc3)ccc2O1
AC50 [1]: 5.35 µM (active)

CCOc1c2ccc(C(=O)NC3CCCc4ccccc43)cc2nn1C (configuration not stated)
AC50 (Cytochrome P450 2C9): inconclusive

C[C@@H]1CCCCO[C@@H](CN(C)C(=O)c2ccccc2)[C@@H](C)CN([C@H](C)CO)C(=O)c2cc(NC(=O)Nc3ccc(C(F)(F)F)cc3)ccc2O1
AC50 [1]: 6.48 µM (active)

CN(C)c1ccc(NC(S)=NCC2CCCO2)cc1 (configuration not stated)
IC50 (Large T antigen): 14.3 µM (active) | IC50 [7]: 85.6 µM (active)

COc1ccc(/C=C(/C#N)C(=O)Nc2ccc(O)cc2)cc1C(=O)O
IC50 (Large T antigen): 36.9 µM (active) | AC50 [6]: 32.1 µM (active) | EC50 (Protein RecA): 8.43 µM (active)

CC[C@H](CO)NCCN[C@@H](CC)CO
AC50 (Cytochrome P450 2C9): inconclusive

Clc1ccc(CN2CCN(/N=C/c3ccco3)CC2)cc1
EC50 [4]: > 50 µM (active)

CCN(CC)c1ccc(NC(=O)COC(=O)COc2ccccc2[N+](=O)[O-])cc1
IC50 (Large T antigen): 10.4 µM (active)

COc1cc(C(=O)N/N=C/c2ccc(OC(=O)c3cccc(C)c3)c(OC)c2)ccc1O
EC50 [4]: > 50 µM (active) | IC50 (H9c2): > 79 µM (inactive)
